Results as given in US9029337B2, “Modulation of factor 7 expression” (Isis Pharmaceuticals, Inc., priority 2007, dated 2015).
Strand notation (5' to 3'): a small letter for the sugar, then the base; units joined by * are phosphorothioate-linked, units joined directly phosphodiester-linked; [ ] holds rarer units or linkages, { } end groups; capitals alone tell only the bases. e = 2'-O-(2-methoxyethyl) (MOE); [5mC] = 5-methylcytosine; d = 2'-deoxy (DNA)

Test system: human Factor 7 mRNA
Test: Antisense inhibition of human Factor 7 mRNA in HepB3 cells, 50 nM antisense oligonucleotide, lipofectin
Assay type: cell-based
Conditions: for % Inhibition: lipofectin, approximately 24 hours; for % Inhibition of human Factor 7 mRNA levels: gapmers targeted to nucleobases 4868 to 4899 of SEQ ID NO: 1, Table 8
Procedure, shortened: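 Percent inhibition, untreated cells as reference: derived from RNA collected about 24 hours post-transfection of 4,000-cell wells, with the human RTS 2927 primer probe set and adjustment for total RNA content (RIBOGREEN®).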

[1] = oligonucleotides targeted to nucleobases 11830 to 11869 of SEQ ID NO: 1 (Table 9)
[2] = Table 1, 50 nM, relative to untreated control cells
[3] = 50 nM antisense oligonucleotide, Factor 7 mRNA by real-time RT-PCR (RTS 2927), relative to untreated control
[4] = oligonucleotides targeted to nucleobases 14707 to 14732 of SEQ ID NO: 1 (Table 11)

422171 (antisense eG*eG*e[5mC]*dT*dG*dA*dG*dG*dA*dG*dA*d[5mC]*dA*dA*dT*dG*dG*eT*e[5mC]*eA) [compound 422171]
% Inhibition (human Factor 7 mRNA levels) [1]: 61%

407905 (antisense e[5mC]*e[5mC]*eA*eG*eT*dT*d[5mC]*dT*dT*dG*dA*dT*dT*dT*dT*eG*eT*e[5mC]*eG*eA) [compound 407905]
% Inhibition [2]: 40%

422093 (antisense eA*eA*eT*eG*eG*dT*d[5mC]*dA*dG*dG*dG*d[5mC]*dT*dG*dG*eT*eT*eT*eT*eG) [compound 422093]
% Inhibition (human Factor 7 mRNA levels) [1]: 42%

422168 (antisense eT*eG*eA*dG*dG*dA*dG*dA*d[5mC]*dA*dA*dT*dG*dG*dT*d[5mC]*dA*eG*eG*eG) [compound 422168]
% Inhibition (human Factor 7 mRNA levels) [1]: 30%

416484 (antisense eT*eA*e[5mC]*eA*eG*d[5mC]*d[5mC]*dT*d[5mC]*dA*dA*dA*d[5mC]*dA*dT*e[5mC]*eT*eA*eT*e[5mC]) [compound 416484]
% Inhibition [3]: 0%

407612 (antisense eA*eG*eA*eT*e[5mC]*dA*dG*d[5mC]*dT*dG*dG*dT*d[5mC]*dA*dT*e[5mC]*e[5mC]*eT*eT*eG) [compound 407612]
% Inhibition [2]: 82%

422219 (antisense e[5mC]*e[5mC]*eG*dA*dG*dT*dT*d[5mC]*dT*dG*d[5mC]*dA*dG*dG*dA*dG*d[5mC]*eG*eG*e[5mC]) [compound 422219]
% Inhibition of human Factor 7 mRNA levels: 65%

422275 (antisense eG*eT*dT*dA*d[5mC]*dT*dG*dA*dG*d[5mC]*dG*d[5mC]*dG*dG*dA*eA*eG*eA*eA*eG) [compound 422275]
% Inhibition (Table 6, 50 nM): 42%

407953 (antisense eA*e[5mC]*eA*eT*e[5mC]*d[5mC]*dA*dA*dT*dT*d[5mC]*d[5mC]*dA*d[5mC]*dA*eG*eG*eA*eT*e[5mC]) [compound 407953]
% Inhibition [2]: 20%

416492 (antisense eG*eG*eA*eT*e[5mC]*dA*dT*dT*d[5mC]*dT*dG*dG*d[5mC]*d[5mC]*d[5mC]*eT*eG*eA*eG*e[5mC]) [compound 416492]
% Inhibition [3]: 13%

416454 (antisense e[5mC]*eG*eT*eG*e[5mC]*dT*d[5mC]*dG*d[5mC]*d[5mC]*d[5mC]*dA*dG*d[5mC]*dA*e[5mC]*e[5mC]*eG*e[5mC]*eG) [compound 416454]
% Inhibition [3]: 56%

407946 (antisense eT*e[5mC]*e[5mC]*eA*eA*dA*dA*dA*dT*dG*dA*dA*dT*d[5mC]*dA*eT*eG*eG*eG*e[5mC]) [compound 407946]
% Inhibition [2]: 5%

407907 (antisense eA*eA*eT*eG*eA*dG*dA*dA*dG*d[5mC]*dG*d[5mC]*dA*d[5mC]*dG*eA*eA*eG*eG*e[5mC]) [compound 407907]
% Inhibition [2]: 35%

407645 (antisense eG*eA*eG*eA*eG*d[5mC]*dT*dA*dA*dA*d[5mC]*dA*dA*d[5mC]*d[5mC]*eG*e[5mC]*e[5mC]*eT*eT) [compound 407645]
% Inhibition [2]: 65%

422151 (antisense eT*eG*e[5mC]*dA*dT*dG*dG*dT*dG*dA*dT*dG*d[5mC]*dT*dT*d[5mC]*dT*eG*eA*eA) [compound 422151]
% Inhibition (Table 13 (microwalk), 50 nM): 68%

422149 (antisense e[5mC]*eA*eT*dG*dG*dT*dG*dA*dT*dG*d[5mC]*dT*dT*d[5mC]*dT*dG*dA*eA*eT*eT) [compound 422149]
% Inhibition (Table 13 (microwalk), 50 nM): 61%

407962 (antisense eT*eT*eG*eG*eA*dA*dG*d[5mC]*dA*dG*d[5mC]*d[5mC]*d[5mC]*dA*d[5mC]*eG*eG*e[5mC]*eT*eG) [compound 407962]
% Inhibition [2]: 41%

407958 (antisense eG*e[5mC]*e[5mC]*eG*eT*dG*d[5mC]*dT*dT*dG*d[5mC]*d[5mC]*dG*dG*dA*eG*eT*e[5mC]*eT*eG) [compound 407958]
% Inhibition [2]: 58%

407666 (antisense eT*e[5mC]*e[5mC]*e[5mC]*e[5mC]*dA*dG*dG*dA*d[5mC]*dA*dT*d[5mC]*dT*dG*eG*eA*eA*e[5mC]*eT) [compound 407666]
% Inhibition [2]: 52%

422220 (antisense e[5mC]*e[5mC]*e[5mC]*dG*dA*dG*dT*dT*d[5mC]*dT*dG*d[5mC]*dA*dG*dG*dA*dG*e[5mC]*eG*eG) [compound 422220]
% Inhibition of human Factor 7 mRNA levels: 59%

416469 (antisense eG*e[5mC]*eA*eG*e[5mC]*d[5mC]*dA*d[5mC]*dT*d[5mC]*dG*dA*dT*dG*dT*eA*e[5mC]*eT*eG*eG) [compound 416469]
% Inhibition [3]: 55%

422302 (antisense eA*eG*dG*dA*dG*d[5mC]*d[5mC]*d[5mC]*dG*dA*dG*dT*dT*d[5mC]*dT*eG*e[5mC]*eA*eG*eG) [compound 422302]
% Inhibition of human Factor 7 mRNA levels: 67%

407920 (antisense eT*eG*eA*eG*e[5mC]*dG*d[5mC]*dA*dT*dG*dA*dG*d[5mC]*dT*dT*eT*eT*eG*e[5mC]*eA) [compound 407920]
% Inhibition [2]: 65%

422236 (antisense eA*eA*dT*dG*dG*dT*d[5mC]*dA*dG*dG*dG*d[5mC]*dT*dG*dG*eT*eT*eT*eT*eG) [compound 422236]
% Inhibition (human Factor 7 mRNA levels) [1]: 44%

422300 (antisense eG*eA*dG*d[5mC]*d[5mC]*d[5mC]*dG*dA*dG*dT*dT*d[5mC]*dT*dG*d[5mC]*eA*eG*eG*eA*eG) [compound 422300]
% Inhibition of human Factor 7 mRNA levels: 65%

422268 (antisense eA*eG*d[5mC]*dG*d[5mC]*dG*dG*dA*dA*dG*dA*dA*dG*dG*dG*eA*e[5mC]*eG*eG*eA) [compound 422268]
% Inhibition (Table 6, 50 nM): 63%

416510 (antisense eG*eA*e[5mC]*eG*eA*dG*dG*d[5mC]*d[5mC]*dT*d[5mC]*dA*dG*dG*dT*eG*eG*eA*e[5mC]*eG) [compound 416510]
% Inhibition [3]: 30%

422281 (antisense eG*e[5mC]*dA*dG*d[5mC]*d[5mC]*dT*dG*dA*dG*dG*d[5mC]*d[5mC]*dA*dG*e[5mC]*eA*eG*eA*eT) [compound 422281]
% Inhibition (human Factor 7 mRNA levels) [4]: 57%

422133 (antisense eA*eG*e[5mC]*eA*eG*d[5mC]*d[5mC]*dT*dG*dA*dG*dG*d[5mC]*d[5mC]*dA*eG*e[5mC]*eA*eG*eA) [compound 422133]
% Inhibition (human Factor 7 mRNA levels) [4]: 65%

416429 (antisense eA*e[5mC]*eG*e[5mC]*e[5mC]*dG*dT*dG*dG*dG*d[5mC]*dT*dT*d[5mC]*d[5mC]*eT*e[5mC]*e[5mC]*eT*eG) [compound 416429]
% Inhibition [3]: 47%

422260 (antisense eG*e[5mC]*dG*d[5mC]*d[5mC]*dA*d[5mC]*d[5mC]*d[5mC]*dG*d[5mC]*d[5mC]*dG*dG*d[5mC]*eT*e[5mC]*eT*eG*e[5mC]) [compound 422260]
% Inhibition (human Factor 7 mRNA levels) (oligonucleotides targeted to nucleobases 13760 to 13789 of SEQ ID NO: 1 (Table 10)): 56%

422194 (antisense e[5mC]*eT*eG*dA*dG*d[5mC]*dG*d[5mC]*dG*dG*dA*dA*dG*dA*dA*dG*dG*eG*eA*e[5mC]) [compound 422194]
% Inhibition (Table 6, 50 nM): 11%

407891 (antisense e[5mC]*eA*eT*eG*eG*dA*d[5mC]*dT*dT*dG*dA*dG*dG*d[5mC]*dA*e[5mC]*eA*e[5mC]*eT*eG) [compound 407891]
% Inhibition [2]: 66%

416486 (antisense eA*eT*eT*eG*eA*d[5mC]*dA*dA*dG*dG*dG*d[5mC]*dT*dG*dT*eG*eG*e[5mC]*eA*eG) [compound 416486]
% Inhibition [3]: 12%

416483 (antisense eT*eG*eT*eG*eA*dG*dG*dG*dT*dT*d[5mC]*dA*dT*dT*dT*e[5mC]*eA*eG*eT*eG) [compound 416483]
% Inhibition [3]: 22%
